Assay results taken from PMC7002685, “Inhibition of vascular calcification by inositol phosphates derivatized with ethylene glycol oligomers” (Nature Communications, 2020).

What was measured:
[1] = target: T1, Peptidase, CTSG (Cathepsin G) (Homo sapiens, UniProt P08311); assay: Off-target 112510; format: biochemical
T1 construct: purchased Eurofins Panlabs Discovery Services Taiwan, Ltd
Protocol: (§1) The potential off-target activity of 10 µM (OEG2)2-IP4 was assessed against a panel of 87 enzymes, receptors, or ion channels that are used in standard safety pharmacology screens.
(§2) 3.2. Off-target screening assay
(§3) The experiments were conducted by a contract research organization (Eurofins Panlabs Discovery Services Taiwan, Ltd.) and details on the respective assays can be retrieved via the catalog number provided in Supplementary Table 11 from the company’s webpage
(§4) (https://www.eurofinsdiscoveryservices.com/). […]
(§5) At sacrifice the left tibia of animals of the rat model with dietary adenine/high-phosphate-induced uremia and VC was collected, fixed with 70% v/v EtOH and embedded in methyl methacrylate. The trabecular bone compartment is known to be the most metabolic active i.e. actively re-structured bone compartment in CKD. Therefore, histomorphometric and micro-computed tomography (µCT) analysis of bone was performed on the trabecular compartment. Tibial sections were Goldner-stained for histomorphometric analysis of the proximal metaphysis using the AxioVision Release 4.5 software, as […]
(§6) described previously5. […]

[2] = tested on: Potassium Channel [KATP]; assay: Off-target 265600; format: binding, Hamster; details: 10 µM
Protocol: as §1, §2
(§7) The experiments were conducted by a contract research organization (Eurofins Panlabs Discovery
(§8) Services Taiwan, Ltd.) and details on the respective assays can be retrieved via the catalog number
(§9) provided in Supplementary Table 11 from the company’s webpage
as §4

[3] = target: T2, Bradykinin B2 (Homo sapiens, UniProt P30411); assay: Off-target 212320; format: binding
T2 construct: purchased Eurofins Panlabs Discovery Services Taiwan, Ltd
Protocol: as §1, §2, §3, §4, §5, §6

[4] = target: T3, Neuropeptide Y Y1 (Homo sapiens, UniProt P25929); assay: Off-target 257010; format: binding
T3 construct: purchased Eurofins Panlabs Discovery Services Taiwan, Ltd
Protocol: as §1, §2, §7, §8, §9, §4

[5] = target: T4, Tachykinin NK1 (Homo sapiens, UniProt P25103); assay: Off-target 255520; format: binding
T4 construct: purchased Eurofins Panlabs Discovery Services Taiwan, Ltd
Protocol: as §1, §2, §3, §4, §5, §6

[6] = tested on: GABAA, Chloride Channel, TBOB; assay: Off-target 226810; format: binding, Rat; details: 10 µM
Protocol: as §1, §2, §7, §8, §9, §4

[7] = target: T5, Protein Tyrosine Kinase, LCK (Homo sapiens, UniProt P06239); assay: Off-target 176020; format: biochemical
T5 construct: purchased Eurofins Panlabs Discovery Services Taiwan, Ltd
Protocol: as §1, §2, §7, §8, §9, §4

[8] = tested on: Glutamate, NMDA, Polyamine; assay: Off-target 234000; format: binding, Rat; details: 10 µM
Protocol: as §1, §2, §7, §8, §9, §4

[9] = tested on: Phosphodiesterase PDE4; assay: Off-target 154000; format: biochemical, Human; details: 10 µM
Protocol: as §1, §2, §3, §4, §5, §6

[10] = tested on: Androgen (Testosterone); assay: Off-target 206000; format: binding, Human; details: 10 µM
Protocol: as §1, §2, §7, §8, §9, §4

[11] = tested on: vascular calcification; assay: Vitamin D3 (oral) + warfarin diet rat model of VC
[12] = target: T6, Glutamate, Metabotropic, mGlu5 (Homo sapiens, UniProt P41594); assay: Off-target 237000; format: binding
T6 construct: purchased Eurofins Panlabs Discovery Services Taiwan, Ltd
Protocol: as §1, §2, §3, §4, §5, §6

[13] = uremic rats, 4 h i.v. infusion of 50 mg/kg; cited from earlier work

T4 sequence (P25103 whole entry): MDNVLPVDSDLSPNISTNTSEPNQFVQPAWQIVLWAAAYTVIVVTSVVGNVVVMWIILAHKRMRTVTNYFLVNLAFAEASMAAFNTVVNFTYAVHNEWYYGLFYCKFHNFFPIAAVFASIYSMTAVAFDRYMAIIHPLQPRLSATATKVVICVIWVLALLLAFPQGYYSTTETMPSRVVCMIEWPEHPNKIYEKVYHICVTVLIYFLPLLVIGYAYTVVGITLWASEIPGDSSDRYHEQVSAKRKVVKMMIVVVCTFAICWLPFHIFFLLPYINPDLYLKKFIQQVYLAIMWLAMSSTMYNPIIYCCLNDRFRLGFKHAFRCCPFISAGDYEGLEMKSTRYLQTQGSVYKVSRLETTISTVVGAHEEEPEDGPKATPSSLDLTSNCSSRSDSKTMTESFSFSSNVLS
T2 sequence (P30411 whole entry): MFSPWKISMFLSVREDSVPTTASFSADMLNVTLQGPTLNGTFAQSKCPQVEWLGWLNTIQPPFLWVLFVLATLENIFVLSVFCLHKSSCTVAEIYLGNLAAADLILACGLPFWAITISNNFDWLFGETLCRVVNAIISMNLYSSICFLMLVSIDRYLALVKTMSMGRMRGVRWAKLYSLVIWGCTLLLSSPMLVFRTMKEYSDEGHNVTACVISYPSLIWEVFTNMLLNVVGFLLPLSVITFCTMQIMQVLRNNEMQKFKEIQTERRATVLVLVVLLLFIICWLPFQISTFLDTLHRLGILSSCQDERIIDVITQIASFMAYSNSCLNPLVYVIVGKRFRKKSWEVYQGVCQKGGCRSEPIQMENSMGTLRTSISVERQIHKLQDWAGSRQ
T1 sequence (P08311 21-255): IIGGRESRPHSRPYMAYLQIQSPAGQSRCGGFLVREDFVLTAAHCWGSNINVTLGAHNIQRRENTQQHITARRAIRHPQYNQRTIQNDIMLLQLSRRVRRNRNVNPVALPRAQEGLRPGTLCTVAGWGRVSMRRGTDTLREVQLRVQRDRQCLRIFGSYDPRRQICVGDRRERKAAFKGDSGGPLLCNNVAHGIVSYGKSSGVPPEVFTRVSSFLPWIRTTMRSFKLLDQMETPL
T5 sequence (P06239 whole entry): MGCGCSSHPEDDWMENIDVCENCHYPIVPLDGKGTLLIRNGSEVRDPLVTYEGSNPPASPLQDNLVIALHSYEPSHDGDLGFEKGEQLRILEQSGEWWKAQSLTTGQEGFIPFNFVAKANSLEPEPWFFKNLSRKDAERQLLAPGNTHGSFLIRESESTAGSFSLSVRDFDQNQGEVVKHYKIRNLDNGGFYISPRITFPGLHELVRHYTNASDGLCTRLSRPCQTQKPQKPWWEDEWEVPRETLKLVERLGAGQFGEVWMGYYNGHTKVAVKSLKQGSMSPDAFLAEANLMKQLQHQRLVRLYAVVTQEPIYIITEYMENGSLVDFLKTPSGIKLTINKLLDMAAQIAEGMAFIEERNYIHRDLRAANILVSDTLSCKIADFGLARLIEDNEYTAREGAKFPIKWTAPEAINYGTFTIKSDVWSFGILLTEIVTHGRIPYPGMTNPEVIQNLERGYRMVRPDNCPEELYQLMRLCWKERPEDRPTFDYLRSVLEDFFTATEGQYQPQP
T6 sequence (P41594 21-1212): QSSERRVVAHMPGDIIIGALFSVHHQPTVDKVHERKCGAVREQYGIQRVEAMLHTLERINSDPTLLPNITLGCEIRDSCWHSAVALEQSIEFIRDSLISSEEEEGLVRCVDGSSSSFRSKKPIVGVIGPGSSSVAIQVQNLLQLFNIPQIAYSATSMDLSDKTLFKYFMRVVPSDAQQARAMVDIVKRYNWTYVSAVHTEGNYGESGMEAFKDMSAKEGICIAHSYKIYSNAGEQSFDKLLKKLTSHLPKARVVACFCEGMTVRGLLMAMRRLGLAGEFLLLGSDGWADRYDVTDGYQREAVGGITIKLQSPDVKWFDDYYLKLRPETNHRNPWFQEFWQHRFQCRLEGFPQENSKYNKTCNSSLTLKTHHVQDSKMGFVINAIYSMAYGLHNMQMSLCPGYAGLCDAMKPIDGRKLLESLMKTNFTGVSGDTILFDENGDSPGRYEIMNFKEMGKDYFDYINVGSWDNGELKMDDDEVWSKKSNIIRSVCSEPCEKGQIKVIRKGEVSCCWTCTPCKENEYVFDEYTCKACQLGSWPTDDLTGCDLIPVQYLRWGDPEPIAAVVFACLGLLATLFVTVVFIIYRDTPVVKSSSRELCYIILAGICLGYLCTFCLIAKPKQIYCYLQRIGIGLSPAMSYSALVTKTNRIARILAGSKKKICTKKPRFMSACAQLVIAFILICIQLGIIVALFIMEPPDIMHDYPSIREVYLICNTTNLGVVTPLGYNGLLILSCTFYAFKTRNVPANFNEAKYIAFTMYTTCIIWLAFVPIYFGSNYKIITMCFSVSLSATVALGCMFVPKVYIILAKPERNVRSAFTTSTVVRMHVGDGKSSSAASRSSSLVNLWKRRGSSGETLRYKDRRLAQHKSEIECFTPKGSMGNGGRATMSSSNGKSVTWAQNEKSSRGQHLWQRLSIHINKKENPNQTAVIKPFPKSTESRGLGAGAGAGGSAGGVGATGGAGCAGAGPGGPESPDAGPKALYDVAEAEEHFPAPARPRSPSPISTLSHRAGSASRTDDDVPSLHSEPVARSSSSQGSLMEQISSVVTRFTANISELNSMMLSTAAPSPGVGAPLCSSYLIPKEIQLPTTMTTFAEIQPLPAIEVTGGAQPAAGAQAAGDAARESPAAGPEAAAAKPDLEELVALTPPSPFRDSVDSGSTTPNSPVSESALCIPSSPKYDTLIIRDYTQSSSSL
T3 sequence (P25929 whole entry): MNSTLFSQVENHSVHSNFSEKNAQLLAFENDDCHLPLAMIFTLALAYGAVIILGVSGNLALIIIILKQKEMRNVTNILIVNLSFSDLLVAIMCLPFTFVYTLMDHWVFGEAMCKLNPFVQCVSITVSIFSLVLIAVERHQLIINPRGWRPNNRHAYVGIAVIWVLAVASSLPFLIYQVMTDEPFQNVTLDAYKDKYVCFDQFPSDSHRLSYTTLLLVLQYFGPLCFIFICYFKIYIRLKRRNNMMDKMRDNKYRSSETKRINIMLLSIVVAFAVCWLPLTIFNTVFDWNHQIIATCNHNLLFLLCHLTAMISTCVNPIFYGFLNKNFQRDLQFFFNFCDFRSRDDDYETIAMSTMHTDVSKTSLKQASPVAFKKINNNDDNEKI

COCCOCCO[C@@H]1[C@@H](OP(=O)(O)O)[C@H](OCCOCCOC)[C@@H](OP(=O)(O)O)[C@@H](OP(=O)(O)O)[C@H]1OP(=O)(O)O [(OEG2)2-IP4, 4,6-Di-O-(methoxy-diethyleneglycol)-myo-inositol-1,2,3,5-tetrakis(phosphate)]
inhibition at 10 µM [1]: 23%
% Inhibition [2]: 14%
inhibition at 10 µM [3]: -17%
inhibition at 10 µM [4]: -9%
inhibition at 10 µM [5]: -14%
% Inhibition [6]: -19%
inhibition at 10 µM [7]: 4%
% Inhibition [8]: 17%
% Inhibition [9]: 12%
% Inhibition [10]: 12%
animals alive (Figure 5d) ([11]; 1x12.5, Day 0): 12
survival (Figure 5d) ([11]; 1x12.5, Day 0): 100%
animals alive (Figure 5d) ([11]; 1x12.5, Day 4.99): 12
survival (Figure 5d) ([11]; 1x12.5, Day 4.99): 100%
animals alive (Figure 5d) ([11]; 1x12.5, Day 5.01): 11
survival (Figure 5d) ([11]; 1x12.5, Day 5.01): 92%
animals alive (Figure 5d) ([11]; 1x12.5, Day 5.99): 11
survival (Figure 5d) ([11]; 1x12.5, Day 5.99): 92%
animals alive (Figure 5d) ([11]; 1x12.5, Day 6.01): 9
survival (Figure 5d) ([11]; 1x12.5, Day 6.01): 75%
animals alive (Figure 5d) ([11]; 1x12.5, Day 6.99): 9
survival (Figure 5d) ([11]; 1x12.5, Day 6.99): 75%
animals alive (Figure 5d) ([11]; 1x12.5, Day 7.01): 7
survival (Figure 5d) ([11]; 1x12.5, Day 7.01): 58%
animals alive (Figure 5d) ([11]; 1x12.5, Day 7.99): 7
survival (Figure 5d) ([11]; 1x12.5, Day 7.99): 58%
animals alive (Figure 5d) ([11]; 1x12.5, Day 8.01): 7
survival (Figure 5d) ([11]; 1x12.5, Day 8.01): 58%
animals alive (Figure 5d) ([11]; 1x12.5, Day 8.1): 7
survival (Figure 5d) ([11]; 1x12.5, Day 8.1): 58%
calcification in the femoral artery ([11]; 1x12.5 to 2x50 mg/kg/day): dose-dependently prevents calcification in the femoral artery
animals alive (Figure 5d) ([11]; 1x25, Day 0): 12
survival (Figure 5d) ([11]; 1x25, Day 0): 100%
animals alive (Figure 5d) ([11]; 1x25, Day 4.99): 12
survival (Figure 5d) ([11]; 1x25, Day 4.99): 100%
animals alive (Figure 5d) ([11]; 1x25, Day 5.01): 12
survival (Figure 5d) ([11]; 1x25, Day 5.01): 100%
animals alive (Figure 5d) ([11]; 1x25, Day 5.99): 12
survival (Figure 5d) ([11]; 1x25, Day 5.99): 100%
animals alive (Figure 5d) ([11]; 1x25, Day 6.01): 10
survival (Figure 5d) ([11]; 1x25, Day 6.01): 83%
animals alive (Figure 5d) ([11]; 1x25, Day 6.99): 10
survival (Figure 5d) ([11]; 1x25, Day 6.99): 83%
animals alive (Figure 5d) ([11]; 1x25, Day 7.01): 8
survival (Figure 5d) ([11]; 1x25, Day 7.01): 67%
animals alive (Figure 5d) ([11]; 1x25, Day 7.99): 8
survival (Figure 5d) ([11]; 1x25, Day 7.99): 67%
animals alive (Figure 5d) ([11]; 1x25, Day 8.01): 8
survival (Figure 5d) ([11]; 1x25, Day 8.01): 67%
animals alive (Figure 5d) ([11]; 1x25, Day 8.1): 8
survival (Figure 5d) ([11]; 1x25, Day 8.1): 67%
animals alive (Figure 5d) ([11]; 1x50, Day 0): 19
survival (Figure 5d) ([11]; 1x50, Day 0): 100%
animals alive (Figure 5d) ([11]; 1x50, Day 4.99): 19
survival (Figure 5d) ([11]; 1x50, Day 4.99): 100%
animals alive (Figure 5d) ([11]; 1x50, Day 5.01): 19
survival (Figure 5d) ([11]; 1x50, Day 5.01): 100%
animals alive (Figure 5d) ([11]; 1x50, Day 5.99): 19
survival (Figure 5d) ([11]; 1x50, Day 5.99): 100%
animals alive (Figure 5d) ([11]; 1x50, Day 6.01): 19
survival (Figure 5d) ([11]; 1x50, Day 6.01): 100%
animals alive (Figure 5d) ([11]; 1x50, Day 6.99): 19
survival (Figure 5d) ([11]; 1x50, Day 6.99): 100%
animals alive (Figure 5d) ([11]; 1x50, Day 7.01): 17
survival (Figure 5d) ([11]; 1x50, Day 7.01): 89%
animals alive (Figure 5d) ([11]; 1x50, Day 7.99): 17
survival (Figure 5d) ([11]; 1x50, Day 7.99): 89%
animals alive (Figure 5d) ([11]; 1x50, Day 8.01): 15
survival (Figure 5d) ([11]; 1x50, Day 8.01): 79%
animals alive (Figure 5d) ([11]; 1x50, Day 8.1): 15
survival (Figure 5d) ([11]; 1x50, Day 8.1): 79%
survival ([11]; 2 x 25 mg/kg s.c.): 100%
animals alive (Figure 5d) ([11]; 2x25, Day 0): 18
survival (Figure 5d) ([11]; 2x25, Day 0): 100%
animals alive (Figure 5d) ([11]; 2x25, Day 4.99): 18
survival (Figure 5d) ([11]; 2x25, Day 4.99): 100%
animals alive (Figure 5d) ([11]; 2x25, Day 5.01): 18
survival (Figure 5d) ([11]; 2x25, Day 5.01): 100%
animals alive (Figure 5d) ([11]; 2x25, Day 5.99): 18
survival (Figure 5d) ([11]; 2x25, Day 5.99): 100%
animals alive (Figure 5d) ([11]; 2x25, Day 6.01): 18
survival (Figure 5d) ([11]; 2x25, Day 6.01): 100%
animals alive (Figure 5d) ([11]; 2x25, Day 6.99): 18
survival (Figure 5d) ([11]; 2x25, Day 6.99): 100%
animals alive (Figure 5d) ([11]; 2x25, Day 7.01): 18
survival (Figure 5d) ([11]; 2x25, Day 7.01): 100%
animals alive (Figure 5d) ([11]; 2x25, Day 7.99): 18
survival (Figure 5d) ([11]; 2x25, Day 7.99): 100%
animals alive (Figure 5d) ([11]; 2x25, Day 8.01): 18
survival (Figure 5d) ([11]; 2x25, Day 8.01): 100%
animals alive (Figure 5d) ([11]; 2x25, Day 8.1): 18
survival (Figure 5d) ([11]; 2x25, Day 8.1): 100%
animals alive (Figure 5d) ([11]; 2x50, Day 0): 19
survival (Figure 5d) ([11]; 2x50, Day 0): 100%
animals alive (Figure 5d) ([11]; 2x50, Day 4.99): 19
survival (Figure 5d) ([11]; 2x50, Day 4.99): 100%
animals alive (Figure 5d) ([11]; 2x50, Day 5.01): 19
survival (Figure 5d) ([11]; 2x50, Day 5.01): 100%
animals alive (Figure 5d) ([11]; 2x50, Day 5.99): 19
survival (Figure 5d) ([11]; 2x50, Day 5.99): 100%
animals alive (Figure 5d) ([11]; 2x50, Day 6.01): 19
survival (Figure 5d) ([11]; 2x50, Day 6.01): 100%
animals alive (Figure 5d) ([11]; 2x50, Day 6.99): 19
survival (Figure 5d) ([11]; 2x50, Day 6.99): 100%
animals alive (Figure 5d) ([11]; 2x50, Day 7.01): 17
survival (Figure 5d) ([11]; 2x50, Day 7.01): 89%
animals alive (Figure 5d) ([11]; 2x50, Day 7.99): 17
survival (Figure 5d) ([11]; 2x50, Day 7.99): 89%
animals alive (Figure 5d) ([11]; 2x50, Day 8.01): 16
survival (Figure 5d) ([11]; 2x50, Day 8.01): 84%
animals alive (Figure 5d) ([11]; 2x50, Day 8.1): 16
survival (Figure 5d) ([11]; 2x50, Day 8.1): 84%
bulk calcium in carotid artery and femoral artery ([11]; 2 × 25 mg/kg/day): significant reduction in bulk calcium
Mortality rate ([11]; 2 × 25 mg/kg/day s.c. (0/18)): 0%
inhibition at 10 µM [12]: 24%

O=P(O)(O)O[C@H]1[C@H](OP(=O)(O)O)[C@@H](OP(=O)(O)O)[C@H](OP(=O)(O)O)[C@@H](OP(=O)(O)O)[C@H]1OP(=O)(O)O [IP6, myo-Inositol hexakisphosphate]
reduction in serum calcium levels [13]: 17%
